Test results published in publication PMC3179866, “Antiproliferative Activity of Xanthones Isolated from Artocarpus obtusus” (Journal of Biomedicine and Biotechnology, 2011).
Converted amounts (≈) assume the structure as drawn. Read-outs that look alike come from different tables or passages of the source.

Tests used:
[1] = system: HL60 (human promyelocytic leukemia) cells; test: MTT cytotoxicity assay, HL60; format: cell-based; settings: HL-60, 72 h, 72 hours continuous exposure
Source text: (§1) The cancerous and noncancerous cell lines (suspension and anchorage-dependent cells) were obtained from the American Type Culture Collection (ATCC) and the RIKEN Cell Bank (RCB). The cancerous cell lines used were HL-60 (human acute promyelocytic leukemia) (RCB), K562 (human chronic myeloid leukemia) (ATCC), MCF7 (human estrogen receptor (ER+) positive breast cancer) (ATCC), HeLa (human cervical cancer) (ATCC), HepG2 (human hepatocarcinoma) (ATCC), HT29 (human colon cancer) (RCI), and MDA-MB 231 (human estrogen receptor (ER−) negative) (ATCC). The noncancerous cell line and normal cells were 3T3 (Mouse embryo fibroblast) (ATCC), MCF10A (human nontumorigenic breast cell line) (ATCC) and PBMC (human peripheral blood mononuclear cells). PBMCs were obtained from one of the authors herself. Blood (10–12 mL) was taken from the donor by using the 25 mL syringe. The blood sample was diluted with same volume of PBS. The diluted blood sample was carefully layered on Ficoll-Paque Plus (Amersham Biosciences, USA) the ratio of 2 : 1. The mixture was centrifuged at 1500× g for 40 minutes at 18–20°C. The undisturbed lymphocyte layer was carefully transferred into centrifuge tube. […]
(§2) The colorimetric assay was performed on the isolated compounds using a modified microculture tetrazolium salt (MTT) assay (Sigma, USA). […] After incubation, the fractions of surviving cells were determined relative to the untreated cell population using the colorimetric MTT assay. In this method, the viabilities of the cells were determined by measuring the amount of blue formazan crystals formed after 20 mL of freshly prepared MTT solution (5 mg in 1 mL PBS) was added to each well followed by four hours of incubation at 37°C. […] Finally, the absorbance (OD) of each well at 570 nm of wavelength was read using the microplate reader (ELISA reader, EL340 Biokinetic Reader, Bio-Tek Instrumentation). […] The percentage of cell viability was determined as follows: […]

[2] = system: MCF7 (human estrogen receptor (ER+) positive breast cancer) cells; test: MTT cytotoxicity assay, MCF7; format: cell-based; settings: 72 hours continuous exposure
Source text: The cancerous and noncancerous cell lines (suspension and anchorage-dependent cells) were obtained from the American Type Culture Collection (ATCC) and the RIKEN Cell Bank (RCB). The cancerous cell lines used were HL-60 (human acute promyelocytic leukemia) (RCB), K562 (human chronic myeloid leukemia) (ATCC), MCF7 (human estrogen receptor (ER+) positive breast cancer) (ATCC), HeLa (human cervical cancer) (ATCC), HepG2 (human hepatocarcinoma) (ATCC), HT29 (human colon cancer) (RCI), and MDA-MB 231 (human estrogen receptor (ER−) negative) (ATCC). The noncancerous cell line and normal cells were 3T3 (Mouse embryo fibroblast) (ATCC), MCF10A (human nontumorigenic breast cell line) (ATCC) and PBMC (human peripheral blood mononuclear cells). PBMCs were obtained from one of the authors herself. Blood (10–12 mL) was taken from the donor by using the 25 mL syringe. The blood sample was diluted with same volume of PBS. The diluted blood sample was carefully layered on Ficoll-Paque Plus (Amersham Biosciences, USA) the ratio of 2 : 1. The mixture was centrifuged at 1500× g for 40 minutes at 18–20°C. The undisturbed lymphocyte layer was carefully transferred into centrifuge tube. The lymphocyte was washed and spun down three times by adding 10 mL sterile PBS and to get the pellet and resuspended in RPMI 1640 (Sigma, USA) with 100 IU/mL of penicillin, 100 μg/mL of streptomycin (Flowlab, Australia), and 10% v/v Fetal Bovine Serum (FBS) (PAA, Austria). Cell counting was performed to determine the PBMC number in equal volume of trypan blue.
as §2, with “USA). Varying concentrations of 0.46, 0.93, 1.87, 3.75, 7.5, 15, and 30 μg/mL of pyranocycloartobiloxanthone A (1), dihydroartoindonesianin C (2), and pyranocycloartobiloxanthone B (3) were prepared from the substock solutions by serial dilution in RPMI 1640 to give a volume of 100 μL in each microtitre plate well (96-flat bottom microwell plates). Each well was then added with 100 μL of cell lines in complete growth media (RPMI 1640) 5 × 10^5 cells/mL.” for “USA).”

[3] = system: PBMC (human peripheral blood mononuclear cells); test: MTT cytotoxicity assay, PBMC; format: cell-based; settings: PBMC (normal), 72 hours continuous exposure
Source text: as §1, §2

[4] = system: HeLa (human cervical cancer) cells; test: MTT cytotoxicity assay, HeLa; format: cell-based; settings: 72 hours continuous exposure
Source text: (§3) The cancerous and noncancerous cell lines (suspension and anchorage-dependent cells) were obtained from the American Type Culture Collection (ATCC) and the RIKEN Cell Bank (RCB). The cancerous cell lines used were HL-60 (human acute promyelocytic leukemia) (RCB), K562 (human chronic myeloid leukemia) (ATCC), MCF7 (human estrogen receptor (ER+) positive breast cancer) (ATCC), HeLa (human cervical cancer) (ATCC), HepG2 (human hepatocarcinoma) (ATCC), HT29 (human colon cancer) (RCI), and MDA-MB 231 (human estrogen receptor (ER−) negative) (ATCC). […]
as §2

[5] = system: MDA-MB 231 (human estrogen receptor (ER-) negative) cells; test: MTT cytotoxicity assay, MDA-MB 231; format: cell-based; settings: MDA-MB 231, MTT, 72 hours continuous exposure
Source text: as §3, §2

[6] = system: HT29 (human colon cancer) cells; test: MTT cytotoxicity assay, HT29; format: cell-based; settings: HT-29, 72 hours continuous exposure
Source text: as §3, §2

[7] = system: HepG2 (human hepatocarcinoma) cells; test: MTT cytotoxicity assay, HepG2; format: cell-based; settings: 72 hours continuous exposure
Source text: as §3, §2

[8] = system: 3T3 (mouse embryo fibroblast) cells; test: MTT cytotoxicity assay, 3T3; format: cell-based; settings: 3T3, MTT, 72 hours continuous exposure
Source text: as §3, §2

[9] = system: MCF10A (human nontumorigenic breast cell line); test: MTT cytotoxicity assay, MCF10A; format: cell-based; settings: MCF10A (normal), 72 hours continuous exposure
Source text: as §3, §2

[10] = system: HL60 cells; test: Cell proliferation ELISA BrdU assay, HL60; format: cell-based, human; settings: HL60, treated at IC50 concentration (2 μg/mL)
Experimental: (§4) This assay was conducted to determine the antiproliferative effects of the tested compound. In this assay, three different concentrations of compound or test sample were prepared together with control. The concentration chosen were 1 μg/mL, the IC50 concentration, and 20 μg/mL. Two types of cells were selected: HL-60 (suspension) and MCF7 (adherent) cells, since they gave the most significant results for the cytotoxic activity. The procedures are according to the instruction manual from Roche. Each sample was assayed in triplicate, and control samples include a blank (no cells) and background (without BrdU). The cells were treated by pyranocycloartobiloxanthone A (1) for 24, 48, and 72 hours. The cells were cultured together with various dilutions of test substance (tested compound) in 96-well MP flat bottom in a final volume of 100 μL/well, and 10 μL BrdU label (diluted by 1/2000 in media) was added to each well and incubated for 24 hour at 37°C. BrdU label was then replaced with 200 μL of fix/denaturing solution for 30 min at room temperature (25°C) and removed by inverting the plate. The anti-BrdU-POD working solution (100 μL/well) (diluted by 1/100 in dilution buffer) was added and incubated for one hour at room temperature. The cells were washed three times with wash buffer and once with dH2O. Then, removed dH2O and 100 μL of substrate solution was added to each well and incubated for 15 min at room temperature in the dark. The stop solution (100 μL/well) was added, and the absorbance was measured using ELISA reader at 450 nm, (reference wavelength 690). The activity was observed by the optical density (OD) of the absorbance at 450 nm, and graphs were plotted from the optical density obtained against time of exposure for each cell lines.

[11] = system: MCF7 cells; test: Cell proliferation ELISA BrdU assay, MCF7; format: cell-based, human; settings: MCF7, treated at IC50 concentration (5 μg/mL)
Experimental: as §4

[12] = system: HL60 cells; test: Acridine orange / propidium iodide staining, HL60; format: cell-based, human; settings: HL60, 2 μg/mL (IC50), 72 hours
Experimental: (§5) Cell suspensions were mixed with an equal volume of staining solution (1 : 1) containing 10 μg/mL acridine orange and 10 μg/mL propium iodide (dissolved in PBS) and observed under fluorescence microscope within 30 minutes. The viable (green intact cells), apoptotic (green shrinking cells with condensed of fragmented nucleus), and necrotic (red cells) were the morphological changes that were examined under fluorescence microscope.

[13] = system: MCF7 cells; test: Acridine orange / propidium iodide staining, MCF7; format: cell-based, human; settings: MCF7, 5 μg/mL (IC50), 72 hours
Experimental: as §5

[14] = system: K562 (human chronic myeloid leukemia) cells; test: MTT cytotoxicity assay, K562; format: cell-based; settings: K562, 72 h, 72 hours continuous exposure
Source text: as §3, §2

COc1cccc2c1C(=O)c1c(O)c3c(c(O)c1C2=O)C[C@@](O)(C(=O)CO)C[C@@H]3O[C@H]1C[C@H](N)[C@H](O)[C@H](C)O1 [Doxorubicin, reference compound] was tested, and the IC50 [1] was 0.2 ± 0.03 µg/mL (≈ 0.368 µM), the IC50 [2] was 0.2 ± 0.06 µg/mL (≈ 0.368 µM) and the IC50 ([3]; Homo sapiens, read-out: IC50) was > 30 µg/mL.

CC1C(O)Oc2c(O)cc(O)c3c2C1Cc1c-3oc2c3c(cc(O)c2c1=O)OC(C)(C)C=C3 (stereo not drawn) [compound 1, pyranocycloartobiloxanthone A] gave an IC50 [2] of 5 ± 1.2 µg/mL (≈ 11.1 µM), an IC50 [4] of 8 ± 3.3 µg/mL (≈ 17.8 µM) and an IC50 [5] of 12 ± 1.1 µg/mL (≈ 26.6 µM). For the same compound, the IC50 [6] was 14 ± 1.5 µg/mL (≈ 31.1 µM), the IC50 [7] was 20 ± 2 µg/mL (≈ 44.4 µM) and the IC50 [8] was 7 ± 1.6 µg/mL (≈ 15.5 µM). For the same compound, the IC50 ([9]; Homo sapiens, MCF-10A, read-out: IC50) was > 30 µg/mL, the IC50 [9] was “not toxic” and the IC50 ([3]; Homo sapiens, read-out: IC50) was > 30 µg/mL. The IC50 [3] was “not toxic”, the “OD value (BrdU ELISA, 450 nm)” value ([10]; 24 hours, untreated 1.34) was 0.8 and the “OD value (BrdU ELISA, 450 nm)” value ([10]; 48 hours, untreated 1.26) was 0.78. For the same compound, the “OD value (BrdU ELISA, 450 nm)” value ([10]; 72 hours, untreated 1.65) was 0.66, the “OD value (BrdU ELISA, 450 nm)” value ([11]; 24 hours, untreated 1.44) was 0.89 and the “OD value (BrdU ELISA, 450 nm)” value ([11]; 48 hours, untreated 2.08) was 0.75. The “OD value (BrdU ELISA, 450 nm)” value ([11]; 72 hours, untreated 2.88) was 0.66, the “mode of cell death (AO/PI morphology)” value [12] was “kill both cells in apoptotic manner” and the “mode of cell death (AO/PI morphology)” value [13] was “kill both cells in apoptotic manner”.

C=C(C)c1cc2c(=O)c3c(O)cc4c(c3oc2c2c1C(C)(O)CC2=O)C=CC(C)(C)O4 (stereo not drawn) [compound 2, dihydroartoindonesianin C] was tested, and the IC50 [1] was 26 ± 0.8 µg/mL (≈ 62.1 µM), the IC50 [14] was > 30 µg/mL and the IC50 [2] was 27 ± 1.9 µg/mL (≈ 64.5 µM).

CC1Oc2c(O)cc(O)c3c2C(Cc2c-3oc3c4c(cc(O)c3c2=O)OC(C)(C)C=C4)C1O (stereo not drawn) [compound 3, pyranocycloartobiloxanthone B] was tested, and the IC50 [1] was 17 ± 0.8 µg/mL (≈ 37.7 µM), the IC50 [14] was > 30 µg/mL and the IC50 [2] was 23 ± 1.3 µg/mL (≈ 51.1 µM).
